The source of these data is ChEMBL document CHEMBL5291721, “A preclinical secondary pharmacology resource illuminates target-adverse drug reaction associations of marketed drugs” (Nat Commun, 2023).

A value given as a limit tells only on which side of the number the result lay.

For assay [1], the target named is T1, Adenosine receptor A1 (Homo sapiens, UniProt P30542).
T1 sequence (P30542 whole entry): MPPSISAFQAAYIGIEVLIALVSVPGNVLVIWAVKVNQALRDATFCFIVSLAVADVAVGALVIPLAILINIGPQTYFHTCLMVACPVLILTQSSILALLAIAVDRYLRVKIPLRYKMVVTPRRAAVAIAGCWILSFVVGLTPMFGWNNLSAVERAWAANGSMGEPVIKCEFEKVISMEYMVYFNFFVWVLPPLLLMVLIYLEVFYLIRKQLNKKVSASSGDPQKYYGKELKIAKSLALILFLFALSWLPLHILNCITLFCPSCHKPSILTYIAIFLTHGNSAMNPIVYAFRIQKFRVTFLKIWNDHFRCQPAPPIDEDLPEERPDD

Assay [2] concerns the target T2, Adenosine receptor A3 (Homo sapiens, UniProt P0DMS8).
T2 sequence (P0DMS8 whole entry): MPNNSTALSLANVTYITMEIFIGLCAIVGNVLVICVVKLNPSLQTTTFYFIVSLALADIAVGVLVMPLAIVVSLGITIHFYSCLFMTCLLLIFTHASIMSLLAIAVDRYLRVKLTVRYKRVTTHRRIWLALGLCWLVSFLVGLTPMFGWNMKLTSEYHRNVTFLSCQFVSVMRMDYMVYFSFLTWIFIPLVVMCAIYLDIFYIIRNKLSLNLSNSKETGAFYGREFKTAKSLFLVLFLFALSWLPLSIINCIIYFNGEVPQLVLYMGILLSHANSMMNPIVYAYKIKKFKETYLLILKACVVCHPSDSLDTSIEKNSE

The target of assay [3] is T3, Type-1 angiotensin II receptor (Homo sapiens, UniProt P30556).
T3 sequence (P30556 whole entry): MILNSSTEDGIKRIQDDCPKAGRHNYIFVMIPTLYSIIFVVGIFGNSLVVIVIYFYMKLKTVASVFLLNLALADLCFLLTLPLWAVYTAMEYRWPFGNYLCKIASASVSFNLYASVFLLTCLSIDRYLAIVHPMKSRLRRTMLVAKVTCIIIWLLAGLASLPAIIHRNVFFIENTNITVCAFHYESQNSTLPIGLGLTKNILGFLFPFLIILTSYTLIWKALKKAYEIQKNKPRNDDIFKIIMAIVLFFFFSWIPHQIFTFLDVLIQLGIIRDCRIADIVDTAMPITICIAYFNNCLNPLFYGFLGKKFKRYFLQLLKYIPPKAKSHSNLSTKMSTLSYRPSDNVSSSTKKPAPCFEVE

Assay [4] has as its target Neuronal acetylcholine receptor subunit alpha-4 (Homo sapiens, UniProt P43681).
Assay [5] concerns the target Growth hormone secretagogue receptor type 1 (Homo sapiens, UniProt Q92847).
The target in assay [6] is Melanocortin receptor 3 (Homo sapiens, UniProt P41968).
Assay [7] concerns the target Motilin receptor (Homo sapiens, UniProt O43193).
For assay [8], the target named is T4, Equilibrative nucleoside transporter 1 (Homo sapiens, UniProt Q99808).
T4 sequence (Q99808 whole entry): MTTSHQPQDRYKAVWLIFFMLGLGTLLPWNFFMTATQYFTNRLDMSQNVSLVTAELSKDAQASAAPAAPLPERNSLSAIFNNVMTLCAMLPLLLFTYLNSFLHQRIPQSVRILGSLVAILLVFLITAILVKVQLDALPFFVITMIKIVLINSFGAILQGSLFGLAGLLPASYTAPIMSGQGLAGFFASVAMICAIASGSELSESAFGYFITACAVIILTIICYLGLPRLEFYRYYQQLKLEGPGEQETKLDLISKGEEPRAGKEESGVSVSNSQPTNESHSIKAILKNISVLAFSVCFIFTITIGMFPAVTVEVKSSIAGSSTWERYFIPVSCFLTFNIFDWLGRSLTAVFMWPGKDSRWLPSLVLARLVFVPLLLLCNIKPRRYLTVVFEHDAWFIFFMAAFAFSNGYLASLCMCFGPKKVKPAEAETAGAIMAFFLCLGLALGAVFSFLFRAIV

For assay [9], the target named is Sodium-dependent noradrenaline transporter (Homo sapiens, UniProt P23975).
The target of assay [10] is T5, 5-hydroxytryptamine receptor 1A (Homo sapiens, UniProt P08908).
T5 sequence (P08908 whole entry): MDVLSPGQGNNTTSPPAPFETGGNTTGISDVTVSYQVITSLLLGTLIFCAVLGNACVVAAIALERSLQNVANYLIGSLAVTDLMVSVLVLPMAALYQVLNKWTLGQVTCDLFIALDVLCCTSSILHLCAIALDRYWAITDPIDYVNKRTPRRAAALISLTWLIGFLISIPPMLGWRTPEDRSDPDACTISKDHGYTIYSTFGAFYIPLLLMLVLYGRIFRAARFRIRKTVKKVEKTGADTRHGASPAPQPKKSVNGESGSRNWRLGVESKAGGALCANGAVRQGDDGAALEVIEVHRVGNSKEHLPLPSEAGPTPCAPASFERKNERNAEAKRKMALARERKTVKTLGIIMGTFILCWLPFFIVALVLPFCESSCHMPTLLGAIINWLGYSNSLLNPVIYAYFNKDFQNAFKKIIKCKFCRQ
Type of assay: functional, cell-based.

The target of assay [11] is 5-hydroxytryptamine receptor 2B (Homo sapiens, UniProt P41595). Type of assay: functional, cell-based.
The target in assay [12] is T6, 5-hydroxytryptamine receptor 2C (Homo sapiens, UniProt P28335).
T6 sequence (P28335 whole entry): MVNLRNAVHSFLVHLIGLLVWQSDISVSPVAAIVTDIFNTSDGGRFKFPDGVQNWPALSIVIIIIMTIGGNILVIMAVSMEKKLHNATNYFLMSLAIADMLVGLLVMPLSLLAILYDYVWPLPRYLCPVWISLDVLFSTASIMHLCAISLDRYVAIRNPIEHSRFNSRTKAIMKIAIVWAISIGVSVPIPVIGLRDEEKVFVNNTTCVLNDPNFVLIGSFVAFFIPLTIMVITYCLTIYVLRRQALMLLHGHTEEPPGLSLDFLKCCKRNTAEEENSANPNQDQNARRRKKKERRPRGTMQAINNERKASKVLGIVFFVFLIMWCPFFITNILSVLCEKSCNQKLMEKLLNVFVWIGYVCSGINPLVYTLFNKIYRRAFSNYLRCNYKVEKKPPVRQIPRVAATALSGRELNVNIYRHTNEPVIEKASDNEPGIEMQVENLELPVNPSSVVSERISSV

The target in assay [13] is 3',5'-cyclic-AMP phosphodiesterase 4D (Homo sapiens, UniProt Q08499). The class given is functional.
The target in assay [14] is D(3) dopamine receptor (Homo sapiens, UniProt P35462).
Further: assay procedure not described here.

Chain of D(3) dopamine receptor (P35462 whole entry): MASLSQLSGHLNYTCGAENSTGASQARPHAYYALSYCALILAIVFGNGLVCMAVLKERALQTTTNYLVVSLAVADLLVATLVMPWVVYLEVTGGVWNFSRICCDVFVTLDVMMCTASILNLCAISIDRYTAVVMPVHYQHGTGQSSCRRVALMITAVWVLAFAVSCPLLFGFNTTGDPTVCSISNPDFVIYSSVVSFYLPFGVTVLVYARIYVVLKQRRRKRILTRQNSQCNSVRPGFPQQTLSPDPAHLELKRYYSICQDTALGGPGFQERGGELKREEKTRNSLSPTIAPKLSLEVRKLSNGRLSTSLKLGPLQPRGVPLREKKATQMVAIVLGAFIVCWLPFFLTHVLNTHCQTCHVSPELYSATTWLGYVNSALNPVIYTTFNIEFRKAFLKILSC
Chain of Neuronal acetylcholine receptor subunit alpha-4 (P43681 whole entry): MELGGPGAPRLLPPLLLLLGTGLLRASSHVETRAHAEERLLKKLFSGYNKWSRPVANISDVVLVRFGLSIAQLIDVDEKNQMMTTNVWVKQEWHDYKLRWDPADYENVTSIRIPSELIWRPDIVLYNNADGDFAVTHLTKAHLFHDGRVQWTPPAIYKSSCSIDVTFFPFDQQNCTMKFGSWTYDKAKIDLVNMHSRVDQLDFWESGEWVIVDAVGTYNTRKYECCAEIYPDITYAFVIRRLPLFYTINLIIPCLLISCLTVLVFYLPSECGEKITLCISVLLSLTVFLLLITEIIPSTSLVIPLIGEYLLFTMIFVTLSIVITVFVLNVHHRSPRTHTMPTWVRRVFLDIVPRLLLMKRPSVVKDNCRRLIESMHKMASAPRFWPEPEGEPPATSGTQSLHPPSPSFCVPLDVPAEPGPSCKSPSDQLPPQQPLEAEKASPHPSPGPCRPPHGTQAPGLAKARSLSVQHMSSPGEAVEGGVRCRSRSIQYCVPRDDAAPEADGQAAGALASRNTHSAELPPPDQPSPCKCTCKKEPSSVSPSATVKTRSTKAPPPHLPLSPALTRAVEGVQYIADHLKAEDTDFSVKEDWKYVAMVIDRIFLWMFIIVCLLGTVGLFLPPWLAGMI
Chain of Sodium-dependent noradrenaline transporter (P23975 whole entry): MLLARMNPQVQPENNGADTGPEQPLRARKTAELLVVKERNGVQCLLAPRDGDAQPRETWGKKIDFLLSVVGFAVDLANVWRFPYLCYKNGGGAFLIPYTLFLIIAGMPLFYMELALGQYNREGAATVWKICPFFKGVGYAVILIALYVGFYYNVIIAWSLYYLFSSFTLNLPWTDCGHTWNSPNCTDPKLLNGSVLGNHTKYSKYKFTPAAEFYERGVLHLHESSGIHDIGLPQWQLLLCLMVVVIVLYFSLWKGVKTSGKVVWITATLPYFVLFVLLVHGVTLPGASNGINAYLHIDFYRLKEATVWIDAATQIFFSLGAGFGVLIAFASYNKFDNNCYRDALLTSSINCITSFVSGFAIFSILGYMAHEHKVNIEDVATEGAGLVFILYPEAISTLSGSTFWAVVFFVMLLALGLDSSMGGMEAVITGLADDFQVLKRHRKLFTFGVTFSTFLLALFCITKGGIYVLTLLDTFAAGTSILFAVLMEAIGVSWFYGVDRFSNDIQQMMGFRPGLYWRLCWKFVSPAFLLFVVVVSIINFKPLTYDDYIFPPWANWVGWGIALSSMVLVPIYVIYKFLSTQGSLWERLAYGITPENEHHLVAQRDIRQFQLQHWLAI
Chain of Motilin receptor (O43193 whole entry): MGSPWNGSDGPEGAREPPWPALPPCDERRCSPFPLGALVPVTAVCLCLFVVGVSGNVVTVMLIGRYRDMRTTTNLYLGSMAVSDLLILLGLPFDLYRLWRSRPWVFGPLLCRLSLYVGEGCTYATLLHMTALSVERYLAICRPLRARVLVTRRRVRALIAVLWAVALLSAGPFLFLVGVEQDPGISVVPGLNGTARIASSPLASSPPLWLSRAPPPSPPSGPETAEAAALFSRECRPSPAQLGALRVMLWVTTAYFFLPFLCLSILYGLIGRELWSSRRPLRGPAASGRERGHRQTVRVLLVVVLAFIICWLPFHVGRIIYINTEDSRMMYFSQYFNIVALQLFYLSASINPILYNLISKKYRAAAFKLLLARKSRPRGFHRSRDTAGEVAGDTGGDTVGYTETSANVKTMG
Chain of 5-hydroxytryptamine receptor 2B (P41595 whole entry): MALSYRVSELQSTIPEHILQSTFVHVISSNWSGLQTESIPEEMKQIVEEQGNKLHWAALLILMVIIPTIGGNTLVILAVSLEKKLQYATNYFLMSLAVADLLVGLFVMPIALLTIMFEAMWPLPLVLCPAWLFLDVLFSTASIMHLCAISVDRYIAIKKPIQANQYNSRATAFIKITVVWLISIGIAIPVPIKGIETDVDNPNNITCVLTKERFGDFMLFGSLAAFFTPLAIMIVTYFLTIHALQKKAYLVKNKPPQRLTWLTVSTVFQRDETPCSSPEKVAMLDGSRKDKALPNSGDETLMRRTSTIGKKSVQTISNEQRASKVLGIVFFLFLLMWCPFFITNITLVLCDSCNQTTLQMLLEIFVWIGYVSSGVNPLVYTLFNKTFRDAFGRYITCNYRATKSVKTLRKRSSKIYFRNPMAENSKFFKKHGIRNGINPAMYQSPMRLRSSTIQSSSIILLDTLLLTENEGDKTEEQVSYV
Chain of 3',5'-cyclic-AMP phosphodiesterase 4D (Q08499 whole entry): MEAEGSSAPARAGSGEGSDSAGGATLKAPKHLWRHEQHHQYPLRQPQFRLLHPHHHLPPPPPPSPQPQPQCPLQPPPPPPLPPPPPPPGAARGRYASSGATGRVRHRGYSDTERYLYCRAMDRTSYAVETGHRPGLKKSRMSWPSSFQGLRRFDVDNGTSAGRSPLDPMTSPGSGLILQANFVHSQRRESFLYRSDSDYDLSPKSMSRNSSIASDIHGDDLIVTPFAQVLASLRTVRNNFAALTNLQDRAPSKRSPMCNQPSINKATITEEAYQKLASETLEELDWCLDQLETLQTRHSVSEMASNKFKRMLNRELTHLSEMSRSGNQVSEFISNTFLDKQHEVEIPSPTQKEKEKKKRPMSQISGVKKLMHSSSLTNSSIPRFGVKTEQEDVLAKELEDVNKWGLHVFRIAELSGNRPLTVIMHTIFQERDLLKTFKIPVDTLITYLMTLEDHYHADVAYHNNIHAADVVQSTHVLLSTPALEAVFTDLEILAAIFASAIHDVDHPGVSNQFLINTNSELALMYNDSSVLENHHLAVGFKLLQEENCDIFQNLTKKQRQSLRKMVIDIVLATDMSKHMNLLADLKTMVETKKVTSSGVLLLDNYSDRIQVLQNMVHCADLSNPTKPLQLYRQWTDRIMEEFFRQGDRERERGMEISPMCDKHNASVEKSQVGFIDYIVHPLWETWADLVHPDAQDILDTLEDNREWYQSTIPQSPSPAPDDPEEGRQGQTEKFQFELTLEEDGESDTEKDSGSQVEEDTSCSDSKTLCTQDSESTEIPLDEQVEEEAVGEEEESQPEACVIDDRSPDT
Chain of Melanocortin receptor 3 (P41968 whole entry): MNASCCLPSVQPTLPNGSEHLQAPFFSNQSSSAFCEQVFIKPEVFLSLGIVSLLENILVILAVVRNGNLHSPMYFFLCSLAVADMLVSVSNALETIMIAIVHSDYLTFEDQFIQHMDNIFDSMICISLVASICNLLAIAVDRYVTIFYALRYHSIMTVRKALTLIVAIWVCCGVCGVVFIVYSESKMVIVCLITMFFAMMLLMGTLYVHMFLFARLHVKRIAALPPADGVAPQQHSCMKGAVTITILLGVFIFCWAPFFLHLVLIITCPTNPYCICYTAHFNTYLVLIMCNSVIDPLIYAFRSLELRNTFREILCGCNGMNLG
Chain of Growth hormone secretagogue receptor type 1 (Q92847 whole entry): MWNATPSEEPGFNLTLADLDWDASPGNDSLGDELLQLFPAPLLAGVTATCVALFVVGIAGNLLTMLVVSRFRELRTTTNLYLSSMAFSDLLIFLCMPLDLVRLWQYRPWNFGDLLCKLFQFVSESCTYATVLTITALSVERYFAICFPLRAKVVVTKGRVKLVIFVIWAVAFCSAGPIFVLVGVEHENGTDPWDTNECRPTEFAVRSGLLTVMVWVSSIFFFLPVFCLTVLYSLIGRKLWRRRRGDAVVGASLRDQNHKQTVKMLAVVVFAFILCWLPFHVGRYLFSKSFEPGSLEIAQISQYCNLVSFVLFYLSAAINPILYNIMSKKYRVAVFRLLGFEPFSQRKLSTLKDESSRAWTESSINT

`O=c1[nH]cc(F)c(=O)[nH]1` [FLUOROURACIL]: the AC50 in assay [1], in assay [2], in [3], in assay [4], in assay [5] and in assay [6] was more than 30 µM each time. For the same molecule, the half-maximal activity concentration (AC50) in assay [7], in [8] and in [9] was more than 30 µM throughout.

Regarding `c1cnc2cc3c(cc2n1)[C@@H]1CNC[C@H]3C1` [VARENICLINE], the AC50 in assay [1], in [2], in [3], in assay [5], in assay [10] and in [11] was more than 30 µM in each case. In addition, the AC50 in [12], in assay [6], in assay [7], in assay [13], in assay [8] and in assay [9] was more than 30 µM in each case. In addition, the AC50 in assay [14] was more than 30 µM.

Consider `CN(C)CCC=C1c2ccccc2CCc2ccccc21` [AMITRIPTYLINE], for which the AC50 in assay [1] was more than 30 µM; in [2], 14.1 µM; in assay [3], 1.4 µM; in assay [4] it was more than 30 µM; in assay [5] it was more than 30 µM; in assay [10], more than 10 µM. Also, the AC50 in assay [12] is 0.15 µM; in assay [6], 23 µM; in assay [7] it was more than 30 µM; in assay [13] it was more than 30 µM; in assay [8], more than 30 µM; in assay [14], 0.44 µM.

With `CN(C)CCCC1(c2ccc(F)cc2)OCc2cc(C#N)ccc21` (stereo unspecified) [CITALOPRAM], the AC50 in assay [1] is more than 30 µM; in assay [2] it was more than 30 µM; in [3], more than 30 µM; in [5], more than 30 µM; in assay [10] it was more than 10 µM; in assay [11], more than 30 µM. In addition, the AC50 in assay [6] was more than 30 µM; in assay [7], more than 10 µM; in [13], more than 30 µM; in assay [8], more than 30 µM.

In the case of `C#CCN(C)Cc1ccccc1` [PARGYLINE], the AC50 in [10], in [11], in assay [12] and in assay [13] was more than 30 µM in each case.

In the case of `O=C(Cc1cccs1)N[C@@H]1C(=O)N2C(C(=O)[O-])=C(C[n+]3ccccc3)CS[C@H]12` [CEPHALORIDINE], the AC50 in assay [10], in [11], in assay [12], in [13] and in assay [14] was more than 30 µM each time.

Consider `CC(=O)NC[C@H]1CN(c2ccc(N3CCOCC3)c(F)c2)C(=O)O1` [LINEZOLID], for which the AC50 in assay [1], in assay [2], in assay [3], in [4], in assay [5] and in assay [10] was more than 30 µM in each case. Besides, the AC50 in assay [12], in assay [6], in assay [13], in [8] and in [14] was more than 30 µM each time.

With `CC[N+](CC)(CCNC(=O)C(=O)NCC[N+](CC)(CC)Cc1ccccc1Cl)Cc1ccccc1Cl` [AMBENONIUM], the AC50 in assay [1], in [2], in assay [3], in assay [4], in [5] and in assay [10] was more than 30 µM each time. The AC50 is more than 30 µM in [11]; more than 30 µM in assay [12]; more than 30 µM in [6]; more than 30 µM in assay [7]; more than 30 µM in assay [13]; 10 µM in assay [9]. The concentration at half-maximal activity (AC50) in [14] was more than 30 µM.

Regarding `CS(=O)(=O)Nc1ccc([N+](=O)[O-])cc1Oc1ccccc1` [NIMESULIDE], the AC50 in assay [3] was 20 µM; in [4], 21 µM; in [5] it was 30 µM; in assay [10] it was more than 30 µM; in [11], more than 30 µM; in [12], 26 µM. The half-maximal activity concentration (AC50) in assay [6] is more than 30 µM; in assay [7], 27 µM; in assay [13] it was more than 30 µM; in assay [8] it was 15 µM; in assay [9], 19 µM; in assay [14] it was more than 30 µM.

Regarding `NCCCNCCSP(=O)(O)O` [AMIFOSTINE], the AC50 in assay [1], in [2], in assay [3], in assay [4], in [5] and in assay [10] was more than 30 µM in each case. The AC50 in assay [11], in assay [12], in assay [6], in [7], in assay [13] and in [9] was more than 30 µM in each case. In [14], this molecule registered an AC50 of more than 30 µM.

Turning to `CC(C)/N=c1\cc2n(-c3ccc(Cl)cc3)c3ccccc3nc-2cc1Nc1ccc(Cl)cc1` [CLOFAZIMINE], the AC50 was more than 30 µM in assay [1]; more than 30 µM in [2]; more than 30 µM in assay [3]; more than 30 µM in assay [4]; 0.92 µM in [5]; more than 30 µM in assay [10]. Moreover, the AC50 in assay [11] is more than 30 µM; in assay [12], more than 30 µM; in assay [6], more than 30 µM; in assay [7], more than 30 µM; in assay [13] it was 17.5 µM; in [9], more than 30 µM. In assay [14], this molecule had an AC50 of more than 30 µM.

`Cc1ccc(C(C)C)c(O)c1` [THYMOL]: the AC50 in assay [12] was 170 µM.

As a reminder, the AC50 is the concentration giving half of the maximal activity seen. Read a low AC50 as activity at low concentration.
